The nature of assay [1]: Inhibition of 20S proteasome.
The test system of the next assay is HT-29. Briefly: Cytotoxicity against human HT-29 cells. Type of assay: functional, cell-based.

Molecules are shown by their SMILES.

As usually defined, the IC50 is the concentration needed to halve the response being measured. A high value points to lower potency. In turn, `C[C@H]1CCCC[C@H](CCCC(Cl)Cl)c2c(O)cc(cc2O)C[C@@H](C)CCCC[C@H](CCCC(Cl)Cl)c2c(O)cc(cc2O)C1` [CYLINDROCYCLOPHANE F4] returned an IC50 in assay [1] of 44800 nM.

As usually defined, the EC50 is the concentration needed to bring the measured effect to its halfway point. The low end stands for an effect from little substance, the high end for a need for much substance. For the compound `C[C@H]1CCCC[C@H](CCCCCl)c2c(O)cc(cc2O)[C@H](O)[C@@H](C)CCCC[C@H](CCCC(Cl)Cl)c2c(O)cc(cc2O)[C@@H]1O` [CYLINDROCYCLOPHANE A3], the 50% effective concentration (EC50) in the assay with HT-29 was 500 nM. For the same compound, the IC50 in assay [1] amounted to 2750 nM.

As to `CCCC[C@H]1CCCC[C@H](C)Cc2cc(O)c(c(O)c2)[C@@H](CCCC(Cl)Cl)CCCC[C@H](C)[C@@H](O)c2cc(O)c1c(O)c2` [CYLINDROCYCLOPHANE C2], in the assay on HT-29, it took 900 nM to reach a half-maximal effect (EC50). The same compound had an IC50 in assay [1] of 22800 nM. In the assay on HT-29, `CCCC[C@H]1CCCC[C@H](C)[C@@H](O)c2cc(O)c(c(O)c2)[C@@H](CCCC(Cl)Cl)CCCC[C@H](C)[C@@H](O)c2cc(O)c1c(O)c2` [CYLINDROCYCLOPHANE A2] gave a concentration for a half-maximal effect (EC50) of 1700 nM. Half-maximal inhibition in assay [1] (IC50) was put at 2550 nM. Taken in the same sequence, the figures for `C[C@H]1CCCC[C@H](CCCC(Br)Br)c2c(O)cc(cc2O)[C@H](O)[C@@H](C)CCCC[C@H](CCCC(Br)Br)c2c(O)cc(cc2O)[C@@H]1O` [CYLINDROCYCLOPHANE AB4] were 500 nM and 2230 nM. Compound `CCCC[C@H]1CCCC[C@H](C)[C@@H](O)c2cc(O)c(c(O)c2)[C@@H](CCCCCl)CCCC[C@H](C)[C@@H](O)c2cc(O)c1c(O)c2` [CYLINDROCYCLOPHANE A1] yielded a half-maximal inhibitory concentration (IC50) in assay [1] of 27600 nM. Consider `CCCC[C@H]1CCCC[C@H](C)Cc2cc(O)c(c(O)c2)[C@@H](CCCC)CCCC[C@H](C)Cc2cc(O)c1c(O)c2` [CYLINDROCYCLOPHANE F], for which the half-inhibitory concentration (IC50) in assay [1] is above 100000 nM.

The compound `C[C@H]1CCCC[C@H](CCCC(Cl)Cl)c2c(O)cc(cc2O)[C@H](O)[C@@H](C)CCCC[C@H](CCCC(Cl)Cl)c2c(O)cc(cc2O)C1` [CYLINDROCYCLOPHANE C4] came in with an EC50 in the assay with HT-29 of 2800 nM. This compound also returned an IC50 in assay [1] of 11200 nM. Regarding `CCCC[C@H]1CCCC[C@H](C)Cc2cc(O)c(c(O)c2)[C@@H](CCCC)CCCC[C@H](C)[C@@H](O)c2cc(O)c1c(O)c2` [CYLINDROCYCLOPHANE C], the 50% inhibitory concentration (IC50) in assay [1] stood at 59300 nM. The same measure, in the same setting: the same measure for `CCCC[C@H]1CCCC[C@H](C)[C@@H](O)c2cc(O)c(c(O)c2)[C@@H](CCCC)CCCC[C@H](C)[C@@H](O)c2cc(O)c1c(O)c2` [CYLINDROCYCLOPHANE A]: 33900 nM. Compound `C[C@H]1CCCC[C@H](CCCC(Cl)Cl)c2c(O)cc(cc2O)[C@H](O)[C@@H](C)CCCC[C@H](CCCC(Cl)Cl)c2c(O)cc(cc2O)[C@@H]1O` [CYLINDROCYCLOPHANE A4] displayed a half-maximal effective concentration (EC50) in the assay on HT-29 of 2000 nM. Further, the midpoint of inhibition in assay [1], the IC50, lay at 3930 nM.

Values taken from ChEMBL document CHEMBL1221408, “Cylindrocyclophanes with proteasome inhibitory activity from the Cyanobacterium Nostoc sp” (J Nat Prod, 2010).
